Measurements published in PubChem BioAssay AID2060887 (Molecular Pharmacology Branch, DTP, NCI, 2025).

Tested on: 782815-120-R-J1-PDC complex spheroid viability
Experiment: Anticancer human tumor 782815-120-R-J1-PDC patient-derived colon adenocarcinoma cell line growth inhibition [RAS]
Conditions: for IC50: curve of first compound; for viability, T/C: stronger effect = lower value
Summary of the method: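 Multi-cell-type spheroids: tumor cells plus HUVEC endothelial cells and mesenchymal stem cells. RAS-pathway inhibitors were combined with targeted agents, each dosed in half-log steps down from clinical Cmax, or from 10 microM when Cmax was unknown.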

[1] = second compound 0.00316 µM, first compound 0.00316 µM
[2] = second compound 0.00316 µM, first compound 0.01 µM
[3] = second compound 0.00316 µM, first compound 0.0316 µM
[4] = second compound 0.00316 µM, first compound 0.1 µM
[5] = second compound 0.00316 µM, first compound 0.316 µM
[6] = second compound 0.00316 µM, first compound 1 µM
[7] = second compound 0.01 µM, first compound 0.00316 µM
[8] = second compound 0.01 µM, first compound 0.01 µM
[9] = second compound 0.01 µM, first compound 0.0316 µM
[10] = second compound 0.01 µM, first compound 0.1 µM
[11] = second compound 0.01 µM, first compound 0.316 µM
[12] = second compound 0.01 µM, first compound 1 µM
[13] = second compound 0.0316 µM, first compound 0.00316 µM
[14] = second compound 0.0316 µM, first compound 0.01 µM
[15] = second compound 0.0316 µM, first compound 0.0316 µM
[16] = second compound 0.0316 µM, first compound 0.1 µM
[17] = second compound 0.0316 µM, first compound 0.316 µM
[18] = second compound 0.0316 µM, first compound 1 µM
[19] = second compound 0.1 µM, first compound 0.00316 µM
[20] = second compound 0.1 µM, first compound 0.01 µM
[21] = second compound 0.1 µM, first compound 0.0316 µM
[22] = second compound 0.1 µM, first compound 0.1 µM
[23] = second compound 0.1 µM, first compound 0.316 µM
[24] = second compound 0.1 µM, first compound 1 µM
[25] = second compound 0.316 µM, first compound 0.00316 µM
[26] = second compound 0.316 µM, first compound 0.01 µM
[27] = second compound 0.316 µM, first compound 0.0316 µM
[28] = second compound 0.316 µM, first compound 0.1 µM
[29] = second compound 0.316 µM, first compound 0.316 µM
[30] = second compound 0.316 µM, first compound 1 µM
[31] = second compound 1 µM, first compound 0.00316 µM
[32] = second compound 1 µM, first compound 0.01 µM
[33] = second compound 1 µM, first compound 0.0316 µM
[34] = second compound 1 µM, first compound 0.1 µM
[35] = second compound 1 µM, first compound 0.316 µM
[36] = second compound 1 µM, first compound 1 µM
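Note: spheroids exposed to compounds for 7 days before reading.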
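Throughout, for viability, T/C: 100% = DMSO vehicle control viability.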

With `C=CC(=O)Nc1cc(Nc2nccc(-c3cn(C)c4ccccc34)n2)c(OC)cc1N(C)CCN(C)C` + C=CC(=O)N1CCN(c2nc(OCC3CCCN3C)nc3c(F)c(-c4nc(N)cc(C)c4C(F)(F)F)c(Cl)cc23)C(C)C1 the IC50 (second compound 0.00316 µM) was > 1 µM, the IC50 (second compound 0.01 µM) was > 1 µM and the IC50 (second compound 0.0316 µM) was > 1 µM. For the same molecule, the IC50 (second compound 0.1 µM) was > 1 µM, the IC50 (second compound 0.316 µM) was > 1 µM and the IC50 (second compound 1 µM) was > 1 µM. The viability, T/C [1] was 92.7%, the viability, T/C [2] was 98.3% and the viability, T/C [3] was 101%. The viability, T/C [4] was 95%, the viability, T/C [5] was 92.9% and the viability, T/C [6] was 99.8%. It also gave a viability, T/C [7] of 91.9%, a viability, T/C [8] of 92% and a viability, T/C [9] of 91.8%. The viability, T/C [10] was 91.6%, the viability, T/C [11] was 93.8% and the viability, T/C [12] was 91%. It also gave a viability, T/C [13] of 98.3%, a viability, T/C [14] of 101% and a viability, T/C [15] of 98.1%. The viability, T/C [16] was 92.1%, the viability, T/C [17] was 92.9% and the viability, T/C [18] was 88.5%. It also gave a viability, T/C [19] of 100%, a viability, T/C [20] of 88.6% and a viability, T/C [21] of 96%. It also gave a viability, T/C [22] of 92.9%, a viability, T/C [23] of 109% and a viability, T/C [24] of 90.7%. The viability, T/C [25] was 101%, the viability, T/C [26] was 95.1% and the viability, T/C [27] was 92.3%. For the same molecule, the viability, T/C [28] was 95.6%, the viability, T/C [29] was 93.9% and the viability, T/C [30] was 91.6%. It also gave a viability, T/C [31] of 96.6%, a viability, T/C [32] of 90.1% and a viability, T/C [33] of 90.3%. The viability, T/C [34] was 96%, the viability, T/C [35] was 93.4% and the viability, T/C [36] was 91.7%.
`O=C(c1ccc(F)c(F)c1Nc1ccc(I)cc1F)N1CC(O)([C@@H]2CCCCN2)C1` + C=CC(=O)N1CCN(c2nc(OCC3CCCN3C)nc3c(F)c(-c4nc(N)cc(C)c4C(F)(F)F)c(Cl)cc23)C(C)C1 gave an IC50 (second compound 0.00316 µM) of 0.0745 µM, an IC50 (second compound 0.01 µM) of 0.0678 µM and an IC50 (second compound 0.0316 µM) of 0.0675 µM. The IC50 (second compound 0.1 µM) was 0.1 µM, the IC50 (second compound 0.316 µM) was 0.0838 µM and the IC50 (second compound 1 µM) was 0.0821 µM. It also gave a viability, T/C [1] of 91.2%, a viability, T/C [2] of 87.7% and a viability, T/C [3] of 64.6%. The viability, T/C [4] was 44.3%, the viability, T/C [5] was 21.8% and the viability, T/C [6] was 3.64%. For the same molecule, the viability, T/C [7] was 93.1%, the viability, T/C [8] was 86.5% and the viability, T/C [9] was 64.6%. It also gave a viability, T/C [10] of 40.9%, a viability, T/C [11] of 21.7% and a viability, T/C [12] of 4.13%. For the same molecule, the viability, T/C [13] was 99.3%, the viability, T/C [14] was 79.5% and the viability, T/C [15] was 64.2%. It also gave a viability, T/C [16] of 46.3%, a viability, T/C [17] of 19% and a viability, T/C [18] of 4.19%. It also gave a viability, T/C [19] of 84.1%, a viability, T/C [20] of 90.1% and a viability, T/C [21] of 68.3%. It also gave a viability, T/C [22] of 52.4%, a viability, T/C [23] of 20.7% and a viability, T/C [24] of 4.3%. The viability, T/C [25] was 90.5%, the viability, T/C [26] was 88.5% and the viability, T/C [27] was 66.2%. The viability, T/C [28] was 47.7%, the viability, T/C [29] was 22% and the viability, T/C [30] was 4.23%. It also gave a viability, T/C [31] of 88.9%, a viability, T/C [32] of 93.5% and a viability, T/C [33] of 66.1%. It also gave a viability, T/C [34] of 45.5%, a viability, T/C [35] of 23.1% and a viability, T/C [36] of 4.2%.
